Data: patent publication US20150283259A1, “DRUG-PROTEIN CONJUGATES” (priority 2012, published 2015)
pIC50: −log10 of the molar value.

Tests used:
[1] = tested on: HER2-positive SK-BR-3 cells; assay: In vitro cell viability assay (Cell-Titer Glo Luminescence), HER2-positive cells; type: cell-based; settings: 96 h incubation, 40-0.018 nM, 2-fold dilutions, viability as % of untreated cells
Experimental: (§1) The in vitro efficacy of the antibody and Fab conjugates prepared in Examples 3 and 4 respectively were determined by measuring the inhibitory effect on cell growth of HER-2 receptor over-expressing cancer cell lines.
(§2) Loss of tumour cell viability following treatment with cytotoxic drugs or ADCs in vitro can be measured by growing cell lines in the presence of increasing concentrations of drugs or ADCs and quantifying the loss of proliferation or metabolic activity using Cell-Titer Glo® Luminescence reagent (Promega Corp. Technical Bullettin TB288; Lewis Phillips G. D, Cancer Res 2008; 68:9280-9290). […]
(§3) HER2-positive SK-BR-3 and HER2-negative MCF-7 cells were trypsinised with 3 mL Trypsin EDTA for 5-15 min. […] Cells were counted using a Neubauer haemocytometer and adjusted to a cell density of 3×10^4/mL for MCF-7 and 5×10^4/mL for SK-BR-3 respectively. […]
(§4) The cell viability assay was carried out using the Cell-Titer Glo® Luminescence reagent, as described by the manufacturer's instructions, (Promega Corp. Technical Bulletin TB288; Lewis Phillips G. D, Cancer Res 2008; 68:9280-9290). […]
(§5) Luminescence was recorded using a plate reader (e.g. MD SpectramaxM3 plate reader), and data subsequently analysed using a four parameter non-linear regression model.
(§6) Viability is expressed as % of untreated cells. […]

[2] = tested on: HER2-negative MCF-7 cells; assay: In vitro cell viability assay (Cell-Titer Glo Luminescence), HER2-negative cells; type: cell-based; settings: 96 h incubation, 200-0.1 nM free AHX-DM1, 3 fold dilutions
Experimental: as §1, §2, §3, §4, §5, §6

For COc1cc2cc(c1Cl)N(C)C(=O)C[C@H](OC(=O)[C@H](C)N(C)C(=O)CCCCCN)[C@]1(C)O[C@H]1[C@H](C)[C@@H]1C[C@@](O)(NC(=O)O1)[C@H](OC)/C=C/C=C(\C)C2 [AHX-DM1], the pIC50 [1] was 8.47 and the pIC50 [2] was 7.44.
